Measured values: PubChem BioAssay (NCI)
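Compound exposure: 48 hours, 5 concentrations, 96-well plates. The concentration for 50% growth inhibition is given as GI50. TGI: concentration producing complete growth inhibition.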

Columns and labels:
Assay in all cases: inhibition of tumour cell growth, NCI panel, 48 h
[1] = tested on: NCI/ADR-RES ovarian
[2] = tested on: HL-60(TB) leukemia
[3] = tested on: BT-549 breast
[4] = tested on: MDA-MB-435
[5] = tested on: MCF7 breast
[6] = tested on: K-562 leukemia
[7] = tested on: DLD-1 colon
[8] = tested on: XF 498 CNS
[9] = tested on: LXFL 529 NSCLC
[10] = tested on: SNB-78 CNS
[11] = tested on: KM20L2 colon

Row | Structure (SMILES) | GI50 [1] | TGI [1] | GI50 [2] | TGI [2] | GI50 [3] | TGI [3] | GI50 [4] | TGI [4] | GI50 [5] | TGI [5] | GI50 [6] | TGI [6] | TGI [7] | TGI [8] | TGI [9] | TGI [10] | TGI [11]
1 | CN(C)c1ncc(-c2ccc(C(F)(F)F)cc2)c(NC2CCCCCC2)n1 | 22.2 µM | 80.6 µM | 15 µM | 34 µM | 20.4 µM | 44.4 µM | 24.8 µM | > 100 µM | 11.4 µM | 24.9 µM | 14.6 µM | 41.1 µM | – | – | – | – | –
2 | CC(=O)OC1CC2Oc3ccc(C)cc3C(C)(O2)C1=O (stereo not drawn) | – | – | – | > 100 µM | – | – | – | – | – | – | – | > 100 µM | > 100 µM | > 100 µM | – | – | –
3 | Clc1ccc(C2=Nn3c(nnc3-c3cc(Cl)cc(Cl)c3Cl)SC2)cc1 | 16.6 µM | > 100 µM | 7.26 µM | 30.7 µM | 17.6 µM | 47.7 µM | 2.79 µM | 11.4 µM | 11.8 µM | 92.7 µM | 3.4 µM | 35.1 µM | – | – | – | – | –
4 | COc1ccc(C(=O)C(c2ccc(OC)cc2)C2OC(=O)C(Cl)=C2Cl)cc1 (stereo not drawn) | – | – | – | > 100 µM | – | – | – | – | – | – | – | > 100 µM | > 100 µM | > 100 µM | > 100 µM | > 100 µM | –
5 | O=C(Nc1cccc(Cc2cccc(NC(=O)c3ccccc3)c2)c1)c1ccccc1 | – | – | – | > 100 µM | – | – | – | – | – | – | – | > 100 µM | > 100 µM | – | > 100 µM | – | > 100 µM
6 | CC1(C)OB(O)OC1(C)C | – | – | – | > 100 µM | – | – | – | – | – | – | – | > 100 µM | > 100 µM | > 100 µM | > 100 µM | > 100 µM | > 100 µM
7 | Fc1ccc(-c2ncn(C3CCNCC3)c2-c2ccnc(Oc3ccc(F)c(F)c3)n2)cc1 | 8.83 µM | > 25 µM | 10.6 µM | 24.6 µM | 12.1 µM | > 25 µM | 6.44 µM | > 15.5 µM | 4.28 µM | 8.27 µM | 7.56 µM | > 19.9 µM | – | – | – | – | –
8 | O=C(O)CCC/C=C\C[C@H]1C=CC(=O)/C1=C/C[C@@H](O)CCc1cccc(C(F)(F)F)c1 | 3.15 µM | 29.3 µM | 2.37 µM | 6.9 µM | 2.83 µM | 11.3 µM | 1.82 µM | 4.94 µM | 0.444 µM | 12.4 µM | 2.24 µM | 10.1 µM | – | – | – | – | –
9 | Cc1ccc(C2NC(=O)c3ccccc3N2)s1 (stereo not drawn) | – | – | – | 8.17 µM | – | – | – | – | – | – | – | > 100 µM | > 100 µM | 19 µM | > 100 µM | > 100 µM | 39.3 µM
10 | NC(=O)c1coc(C2OC(CO)C(O)C2O)n1 (stereo not drawn) | – | – | – | > 100 µM | – | – | – | – | – | – | – | > 100 µM | – | – | > 100 µM | > 100 µM | > 100 µM
11 | O=c1cc(-c2ccccc2)oc2cc(O)cc(O)c12 | – | – | – | 48.3 µM | – | – | – | – | – | – | – | 63.1 µM | – | 44.1 µM | 48.3 µM | 92.5 µM | 53.1 µM
12 | CC(=O)N1c2ccccc2NC2=C(C(=O)N(Cc3ccccc3)C2(C)C)C1c1ccco1 (stereo not drawn) | > 21.6 µM | > 25 µM | 0.103 µM | 0.651 µM | 8.66 µM | > 25 µM | 0.277 µM | 0.859 µM | 0.368 µM | > 25 µM | 0.166 µM | > 25 µM | – | – | – | – | –
13 | CN(CC#N)C1CCCC[C@H]1O (stereo partly drawn) | – | – | – | > 100 µM | – | – | – | – | – | – | – | > 100 µM | > 100 µM | > 100 µM | > 100 µM | > 100 µM | > 100 µM
14 | CS(=O)(=O)Nc1cccc(-c2cc(-c3ccccc3Cl)c(C#N)c(N)n2)c1 | 0.552 µM | > 22.2 µM | 0.361 µM | 13.4 µM | 0.532 µM | 15.4 µM | 0.165 µM | 1.76 µM | 0.478 µM | 14.3 µM | 0.344 µM | > 100 µM | – | – | – | – | –
15 | CN1CCN(c2cc(C(=O)Nc3cc4cc(-c5cnn(C)c5)ccc4cn3)ccn2)CC1 | 0.246 µM | 76.4 µM | 0.119 µM | 7.91 µM | 0.0781 µM | 0.838 µM | 0.169 µM | 13.2 µM | 0.0911 µM | 0.399 µM | 0.0727 µM | > 100 µM | – | – | – | – | –
16 | CN(C)CCSc1cccc(-c2cc(-c3cccc(SCCN(C)C)c3)nc(SCCN(C)C)n2)c1 | – | – | – | 3.67 µM | – | – | – | – | – | – | – | 3.1 µM | 25.9 µM | – | 3.89 µM | 6.25 µM | 3.46 µM
17 | C#CCN(N=O)C(=O)NC(CCCNC(=O)OCc1ccccc1)C(=O)OCc1ccccc1 (stereo not drawn) | – | – | – | 42.9 µM | – | – | – | – | – | – | – | > 100 µM | > 100 µM | 60.1 µM | > 100 µM | > 100 µM | > 100 µM
18 | COc1ccc(C[C@@H]2NC[C@@H](O)[C@@H]2OC(C)=O)cc1 | – | – | 1.72 µM | – | – | 0.145 µM | – | 0.0883 µM | – | – | 1.1 µM | > 100 µM | 13.8 µM | – | 24.1 µM | – | > 100 µM
19 | Cc1cc(Nc2c3ccccc3nc3ccccc23)ccc1NS(C)(=O)=O | 5.63 µM | 52.5 µM | 3.67 µM | 12.1 µM | 10.3 µM | 22.5 µM | 4.26 µM | 25.4 µM | 3.99 µM | 18.4 µM | 3.59 µM | 14.5 µM | – | – | – | – | –
20 | O/N=C1/C(=C/c2ccc(Oc3ccccc3)cc2)CCCC1C(NO)c1ccc(Oc2ccccc2)cc1 (stereo not drawn) | – | – | – | 25.6 µM | – | – | – | – | – | – | – | > 100 µM | > 100 µM | > 100 µM | > 100 µM | > 100 µM | 26.7 µM
21 | COc1cc2c3c(n(CCCNCCCNCCCNCCCN)c(=O)c2cc1OC)-c1cc2c(cc1C3=O)OCO2 | 1.83 µM | 3.22 µM | 1.36 µM | 3.3 µM | 2.2 µM | 6.44 µM | 1.45 µM | 3.18 µM | 0.712 µM | 2.47 µM | 2.05 µM | 5.22 µM | – | – | – | – | –
